Patent US20260317374A1, “Carrier Peptide Fragment and Use Thereof” (TOAGOSEI CO., LTD., priority 2022, published 2026)
FAM = 5(6)-carboxyfluorescein

Tested on: NSC-34 cells (mouse motor neuron-like hybrid cell line)
Assay: Cell membrane permeability of sample in NSC-34 cells by flow cytometry
Format: cell-based
Conditions: for median fluorescence intensity (MFI): 10 μM sample (FAM concentration 10 μM), 0.5% DMSO, 20 hours at 37° C., 5% CO2, detector FL2
Protocol: In Example 1, a construct shown in Table 1 was prepared as a sample 1. Specifically, a construct formed of a synthetic peptide with the amino acid sequence set forth in SEQ ID No.: 1, in which an α-amino group of a lysine residue of an N-terminus is acetylated, and FAM (C21H12O7: 5(6)-carboxyfluorescein, molecular weight 376.3, excitation wavelength 495 nm, fluorescence wavelength 520 nm) corresponding to fluorescent dye bonded to the C-terminus of the synthetic peptide was prepared. The construct was diluted in dimethyl sulfoxide (DMSO) to prepare a sample solution 1 with a sample concentration of 2 mM.
As the eukaryotic cells, NSC-34 cells (mouse motor neuron-like hybrid cell line) were used and the cell membrane permeability of the sample 1 was evaluated. In Example 1, the prepared sample solution 1 was used, and in Example 2, the FAM solution was used.
The NSC-34 cell was cultured in 10% fetal bovine serum (FBS)-containing Dulbecco's modified Eagle's medium (DMEM (Cat No. 044-29765, manufactured by FUJIFILM Wako Pure Chemical Corporation)), which is a culture medium.
The NSC-34 cell that adhered to a culture plate was cleaned with PBS and then, a 0.25%-trypsin/EDTA solution was added thereto, and incubation was performed for three minutes at 37° C. After the incubation, the aforementioned 10% FBS-containing DMEM was added to deactivate trypsin and then, five-minute centrifugal separation was performed at 150×g to precipitate the cells. After the supernatant generated by the centrifugal separation was removed, the 10% FBS-containing DMEM was added to the precipitate (cell pellet) to prepare a cell suspension of about 1×10^5 cells/mL. The cell suspension was added by 1 mL to a well of a commercially available six-hole (well) plate (manufactured by AGC TECHNO GLASS Co., Ltd.) so as to seed the cell (about 1×10^5 cells/well). In addition, the 2 mM sample solution 1 was diluted with the 10% FBS-containing DMEM to prepare the sample solution 1 in which the concentration of the sample 1 was 20 μM. Then, 1 mL of the 20 μM sample solution 1 was added to the well (that is, so that the concentration of the sample 1 became […] and the DMSO concentration became 0.5% in the culture solution in the well). After that, the cell was incubated for 20 hours at 37° C. under a 5% CO2 condition.
After the 20-hour incubation, the culture supernatant was removed from the well and the cells in the well were cleaned twice with 1 mL of PBS. Next, 100 μL of the 0.25% trypsin/EDTA solution was added to the well and the incubation was performed for three minutes at 37° C. After the incubation, 900 µL of the 10% FBS-containing DMEM was added to the well to deactivate the trypsin. Subsequently, the cell suspension in the well was transferred to a tube and the cells were collected. After that, pre-washing was performed additionally, so that the cells remaining in the well were collected in the tube. This tube was subjected to five-minute centrifugal separation at 4° C. under a condition of 210×g. After the centrifugal separation, the supernatant was removed and the precipitate (cell pellet) was suspended (cleaned) with 1 mL of PBS, which was followed by the centrifugal separation under the same condition as that described above. […]
Regarding the obtained cells (cell pellet), the cell membrane permeability of the sample 1 was analyzed using a flow cytometer. […]

Substance | median fluorescence intensity (MFI) | histogram position (flow cytometer, FIG. 1) (Example 1 compared to Example 2 (FAM), 20 hours) | cell membrane permeability (construct vs FAM alone, FIG. 1) | cell membrane permeability of carrier peptide fragment (concluded from the FAM construct (Example 1 vs Example 2))
5(6)-carboxyfluorescein [Example 2, reference compound] | 7.58 | – | – | –
Example 1: synthetic peptide of SEQ ID No.: 1 with N-terminal lysine α-amino group acetylated and FAM bonded to the C-terminus (Ac-KFRAQRRW-{FAM}) | 15.8 | shifted to the right side compared to the histogram according to Example 2 | higher cell membrane permeability than FAM alone | –
SEQ ID No.: 1: carrier peptide fragment; synthetic peptide with amino acid sequence KFRAQRRW | – | – | – | achieves the cell membrane permeability
